# Measured values reported in US20250221966A1, “RXFP1 AGONISTS” (BRISTOL-MYERS SQUIBB COMPANY, priority 2021, published 2025).
# Read-outs that look alike come from different tables or passages of the source.
# Molecular target: T1, human RXFP1 (Homo sapiens, UniProt Q9HBX9)
# T1 construct: expressed in transfected cells
# T1 sequence (Q9HBX9 1-757): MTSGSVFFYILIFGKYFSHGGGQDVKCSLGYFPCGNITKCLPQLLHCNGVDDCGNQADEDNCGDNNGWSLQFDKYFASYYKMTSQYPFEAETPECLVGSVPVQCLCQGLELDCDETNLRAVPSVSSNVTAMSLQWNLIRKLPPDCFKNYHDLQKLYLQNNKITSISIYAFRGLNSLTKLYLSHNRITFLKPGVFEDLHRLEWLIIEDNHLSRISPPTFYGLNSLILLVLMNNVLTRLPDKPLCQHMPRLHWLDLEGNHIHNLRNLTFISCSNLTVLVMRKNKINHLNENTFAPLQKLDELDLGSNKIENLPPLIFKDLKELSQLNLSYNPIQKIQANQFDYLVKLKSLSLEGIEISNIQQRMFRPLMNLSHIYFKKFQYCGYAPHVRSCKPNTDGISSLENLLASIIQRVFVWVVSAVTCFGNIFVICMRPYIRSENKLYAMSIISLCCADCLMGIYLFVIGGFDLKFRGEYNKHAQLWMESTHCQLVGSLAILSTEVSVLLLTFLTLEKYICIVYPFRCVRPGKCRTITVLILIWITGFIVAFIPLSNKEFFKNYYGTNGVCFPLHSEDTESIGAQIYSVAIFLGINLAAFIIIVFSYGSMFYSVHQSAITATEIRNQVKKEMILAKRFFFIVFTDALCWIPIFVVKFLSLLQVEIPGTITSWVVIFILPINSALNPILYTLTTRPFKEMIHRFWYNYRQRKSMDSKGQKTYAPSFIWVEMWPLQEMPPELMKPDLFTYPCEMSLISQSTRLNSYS
# Assay: RXFP1 cAMP assay (hRXFP1 HEK293 cAMP assay, HTRF)
# Assay type: cell-based
# Method: RXFP1 Cyclic Adenosine Monophosphate (cAMP) Assays. […] Cells were dissociated and suspended in assay buffer. The assay buffer was HBSS buffer (with calcium and magnesium) containing 20 mM HEPES, 0.05% BSA, and 0.5 mM IBMX. Cells (3000 cells per well, except 1500 cell per well for HEK293 cells stably expressing human RXFP1) were added to 384-well Proxiplates (Perkin-Elmer). Cells were immediately treated with test compounds in DMSO (2% final) at final concentrations in the range of 0.010 nM to 50 μM. Cells were incubated for 30 min at room temperature. The level of intracellular cAMP was determined using the HTRF HiRange cAMP assay reagent kit (Cisbio) according to manufacturer's instructions. Solutions of cryptate conjugated anti-cAMP and d2 fluorophore-labelled cAMP were made in a supplied lysis buffer separately. Upon completion of the reaction, the cells were lysed with equal volume of the d2-cAMP solution and anti-cAMP solution. […] The potency and activity of a compound to […] cAMP production was then determined by fitting to a 4-parametric logistic equation from a plot of cAMP level versus compound concentrations.
# [1] = HEK293 cells stably expressing human RXFP1, 30 min at room temperature, read-out: cAMP hRXFP1 HEK293 Assay EC50
# [2] = cAMP hRXFP1 HEK293 Assay EC50, HEK293 cells stably expressing human RXFP1, 30 min at room temperature
SMILES,EC50 [1] [nM],EC50 [2] [nM]
COc1c(F)cc(C2=NO[C@@H]3C[C@H](CO)CN23)cc1C(=O)N[C@H]1[C@@H](C(=O)Nc2ccc(F)c(C(F)(F)F)c2)[C@H]2CC[C@@H]1/C2=C\C1CC1 [compound 852],3.1,
"COc1ccc(C2=NOC(C(C)(C)O)C2)cc1C(=O)N[C@H]1[C@@H](C(=O)Nc2ccc(F)c(C(F)(F)F)c2)[C@H]2CC[C@@H]1/C2=C\C1CC1 (single isomer, unassigned) [compound 573]",67.4,
COc1ccc(-c2cc(C3=NOC(C(=O)O)C3)ccc2F)cc1C(=O)N[C@H]1[C@@H](C(=O)Nc2ccc(F)c(C(F)(F)F)c2)[C@H]2CC[C@@H]1/C2=C\C1CCCC1 (stereo partly shown) [compound 945],5.4,
"COc1ccc(C2=NOC3COCC23)cc1C(=O)N[C@@H]1C2CCC(/C2=C/C2CCC2)[C@@H]1C(=O)Nc1ccc(F)c(C(F)(F)F)c1 (single isomer, unassigned) [Example 416]",1,
COc1cc(F)c(F)cc1C(=O)N[C@@H]1C2CCC(/C2=C/Br)[C@@H]1C(=O)Nc1ccc(F)c(C(F)(F)F)c1 (stereo partly shown) [Example 11],230,
"COc1ccc(-c2ccc(N3CCOCC3)c(C(=O)OC(C)(C)C)c2)cc1C(=O)N[C@H]1[C@@H](C(=O)Nc2ccc(F)c(C(F)(F)F)c2)[C@H]2CC[C@@H]1/C2=C\C1CC1 [Example 251, tert-butyl 3′-(((1R,2R,3S,4R,Z)-7-(cyclopropylmethylene)-3-((4-fluoro-3-(trifluoromethyl)phenyl)carbamoyl)bicyclo[2.2.1]heptan-2-yl)carbamoyl)-4′-methoxy-4-morpholino-[1,1′-biphenyl]-3-carboxylate]",36,
COc1ccc(-c2cccnc2F)cc1C(=O)N[C@H]1[C@@H](C(=O)Nc2ccc(F)c(C(F)(F)F)c2)[C@H]2CC[C@@H]1/C2=C\c1ccccc1 [compound 82],41,
COc1ccc([C@H]2CO[C@@H]3[C@H]2OC[C@H]3O)cc1C(=O)N[C@H]1[C@@H](C(=O)Nc2ccc(F)c(C(F)(F)F)c2)[C@H]2CC[C@@H]1/C2=C\C1CC1 [compound 638],207,
COc1ccc(-c2cc(C(=O)N3CC[C@H](O)C3)on2)cc1C(=O)N[C@H]1[C@@H](C(=O)Nc2ccc(F)c(C(F)(F)F)c2)[C@H]2CC[C@@H]1/C2=C\C1CC1 [compound 640],214,
COc1cc(F)c(F)cc1C(=O)N[C@@H]1C2CCC(/C2=C/c2ccco2)[C@@H]1C(=O)Nc1ccc(F)c(C(F)(F)F)c1 (stereo partly shown) [compound 123],210,
"COc1ccc(C2=NOC(CC(C)(C)O)C2)cc1C(=O)N[C@H]1[C@@H](C(=O)Nc2ccc(F)c(C(F)(F)F)c2)[C@H]2CC[C@@H]1/C2=C\C1CC1 (single isomer, unassigned) [compound 499]",11,
"COc1ccc(-c2cccnc2)cc1C(=O)N[C@H]1[C@@H](C(=O)Nc2ccc(F)c(C(F)(F)F)c2)[C@H]2CC[C@@H]1/C2=C\C(F)(F)F [Example 310, (1R,2S,3R,4R,Z)—N-(4-fluoro-3-(trifluoromethyl)phenyl)-3-(2-methoxy-5-(pyridin-3-yl)benzamido)-7-(2,2,2-trifluoroethylidene)bicyclo[2.2.1]heptane-2-carboxamide]",162,
COc1ccc(C2=NOC3CC(CO)CC23)cc1C(=O)N[C@H]1[C@@H](C(=O)Nc2ccc(F)c(C(F)(F)F)c2)[C@H]2CC[C@@H]1/C2=C\C(F)(F)F (stereo partly shown) [compound 478],6.5,
"CN(C)c1c(Cl)cc(C2=NOC3COCC23)cc1C(=O)N[C@H]1[C@@H](C(=O)Nc2ccc(F)c(C(F)(F)F)c2)[C@H]2CC[C@@H]1/C2=C\C(F)(F)F (single isomer, unassigned) [compound 556]",41.7,
COc1ccc(-c2cc(C(O)C(=O)O)ccc2F)cc1C(=O)NC1C2CCC(/C2=C/CCC(C)(C)C)C1C(=O)Nc1ccc(F)c(C(F)(F)F)c1 (stereo not shown) [compound 354],11,
COc1cc(F)c(F)cc1C(=O)N[C@@H]1C2CCC(/C2=C/c2ccc(F)cc2)[C@@H]1C(=O)Nc1ccc(F)c(C(F)(F)F)c1 (stereo partly shown) [compound 41],27,
"COc1ccc(C2=NOC3(CO)CCCC23)cc1C(=O)N[C@H]1[C@@H](C(=O)Nc2ccc(F)c(C(F)(F)F)c2)[C@H]2CC[C@@H]1/C2=C\C1CC1 (single isomer, unassigned) [compound 616]",141,
"COc1ccc(C2=NOC(C(C)O)C2)cc1C(=O)N[C@H]1[C@@H](C(=O)Nc2ccc(F)c(C(F)(F)F)c2)[C@H]2CC[C@@H]1/C2=C\C1CC1 (single isomer, unassigned) [compound 598]",102,
C=C/C=C1\C2CCC1[C@H](C(=O)Nc1ccc(F)c(C(F)(F)F)c1)[C@@H]2NC(=O)c1cc(F)c(F)cc1OC (stereo partly shown) [compound 44],26,

SMILES,EC50 [1] [nM],EC50 [2] [nM]
COc1ccc(Cl)cc1C(=O)N[C@@H]1C2CCC(C2=C(C)C)[C@@H]1C(=O)Nc1ccc(F)c(C(F)(F)F)c1 (stereo partly shown) [compound 109],390,
COc1ccc(-c2cc(C(OC(=O)NC3CC4(CC4)C3)C(F)(F)F)ccc2F)cc1C(=O)N[C@@H]1C2CCC(/C2=C/C2CC2)[C@@H]1C(=O)Nc1ccc(F)c(C(F)(F)F)c1 (stereo partly shown) [compound 215],2,
COc1ccc(-c2cc(C(COC(=O)NC3CCC3)C(F)(F)F)ccc2F)cc1C(=O)N[C@H]1[C@@H](C(=O)Nc2ccc(F)c(C(F)(F)F)c2)[C@H]2CC[C@@H]1/C2=C\C1CC1 (stereo partly shown) [compound 879],0.9,
COc1ccc(-c2cc(C(=O)O)ccc2F)cc1C(=O)N[C@H]1[C@@H](C(=O)Nc2ccc(F)c(C(F)(F)F)c2)[C@H]2CC[C@@H]1/C2=C\c1ccccc1 [compound 80],,11
COc1ccc(C2=CCCNC2)cc1C(=O)N[C@@H]1C2CCC(C2=C(C)C)[C@@H]1C(=O)Nc1ccc(F)c(C(F)(F)F)c1 (stereo partly shown) [Example 140],700,
COc1ccc(-c2cc(C(NC(=O)C(F)(F)F)C(=O)O)ccc2F)cc1C(=O)N[C@@H]1C2CCC(/C2=C/C(F)(F)F)[C@@H]1C(=O)Nc1ccc(F)c(C(F)(F)F)c1 (stereo partly shown) [compound 241],3,
COc1cc(F)c(F)cc1C(=O)N[C@@H]1[C@H](C(=O)Nc2ccc(F)c(C(F)(F)F)c2)[C@@H]2CC[C@H]1C2C(C)C (stereo partly shown) [compound 975],,1000
CN(C)c1ccc(C2=NOC3COCC23)cc1C(=O)N[C@H]1[C@@H](C(=O)Nc2ccc(F)c(C(F)(F)F)c2)[C@H]2CC[C@@H]1/C2=C\C1CC1 (stereo partly shown) [compound 460],2.5,
COc1ccc(C2=NOC3CC(CF)CC23)cc1C(=O)N[C@H]1[C@@H](C(=O)Nc2ccc(F)c(C(F)(F)F)c2)[C@H]2CC[C@@H]1/C2=C\C1CC1 (stereo partly shown) [compound 866],4.8,
COc1ccc(C2=NOC3COCC23)cc1C(=O)N[C@H]1[C@@H](C(=O)N[C@H](C)C2(C)CC2(F)F)[C@H]2CC[C@@H]1/C2=C\C1CC1 (stereo partly shown) [compound 770],3.6,
COc1ccc(-c2cc([C@H](OC(=O)NC3CCC3)C(F)(F)F)ccc2F)cc1C(=O)N[C@@H]1C2/C(=C\C(F)(F)F)C(C(O)C2O)[C@@H]1C(=O)Nc1ccc(F)c(C(F)(F)F)c1 (stereo partly shown) [Example 348],1310,
COc1ccc(-c2cc(C3=NOC4COCC34)ccc2F)cc1C(=O)N[C@H]1[C@@H](C(=O)Nc2ccc(F)c(C(F)(F)F)c2)[C@H]2CC[C@@H]1/C2=C\C1CC1 (stereo partly shown) [compound 910],3.4,
CCc1cccc(/C=C2\C3CCC2[C@H](C(=O)Nc2ccc(F)c(C(F)(F)F)c2)[C@@H]3NC(=O)c2cc(F)c(F)cc2OC)c1 (stereo partly shown) [compound 29],110,
O=C(N[C@H]1[C@@H](C(=O)Nc2ccc(F)c(C(F)(F)F)c2)[C@H]2CC[C@@H]1/C2=C\C1CC1)c1cc(C2=NOC3COCC23)cc(F)c1OCC1CC1 (stereo partly shown) [compound 799],4.7,
COc1ccc(-c2cc(C(=O)O)ccc2F)cc1C(=O)N[C@@H]1C2CCC(/C2=C/C2CC2)[C@@H]1C(=O)NC1CCOCC1 (stereo partly shown) [compound 204],3200,
COc1ccc(C2=NOC3CC(CO)CC23)cc1C(=O)N[C@H]1[C@@H](C(=O)NC2CCCC2)[C@H]2CC[C@@H]1/C2=C\C1CC1 (stereo partly shown) [compound 493],9.5,
COc1c(Cl)cc(C2=NOC3CC(CO)CC23)cc1C(=O)N[C@H]1[C@@H](C(=O)Nc2ccc(F)c(C(F)(F)F)c2)[C@H]2CC[C@@H]1/C2=C\C1CC1 (stereo partly shown) [compound 798],4.7,
COc1ccc(-c2cc(C(=O)O)ccc2F)cc1C(=O)N[C@@H]1C2CCC(/C2=C/C2CC2)[C@@H]1C(=O)NCCc1cccc(C(F)(F)F)c1 (stereo partly shown) [compound 302],889,
